Results as given in ChEMBL document CHEMBL2396542, “Membrane anchoring γ-secretase modulators with terpene-derived moieties” (Bioorg Med Chem Lett, 2013).

Columns and labels:
[1] = Micelle aggregation by compound at 5 to 100 uM by dynamic light scattering assay; format: physicochemical
Presenilin-1 [2] = molecular target: T1, Presenilin-1 (Homo sapiens, UniProt P49768); assay: Modulation of human gamma-secretase presenilin-1 subunit expressed in CHO cells coexpressing human APP assessed as decrease in amyloid beta 40 generation after 24 hrs by ELISA; format: cell-based
Presenilin-1 [3] = molecular target: T1, Presenilin-1; assay: Modulation of human gamma-secretase presenilin-1 subunit expressed in CHO cells coexpressing human APP assessed as increase in amyloid beta 38 generation at EC50 after 24 hrs by ELISA relative to control; format: cell-based
Presenilin-1 [4] = molecular target: T1, Presenilin-1; assay: Modulation of human gamma-secretase presenilin-1 subunit expressed in CHO cells coexpressing human APP assessed as decrease in amyloid beta 42 generation after 24 hrs by ELISA; format: cell-based
[5] = Micelle formation by compound at 5 to 100 uM by dynamic light scattering assay; format: physicochemical
Presenilin-1 [6] = molecular target: T1, Presenilin-1; assay: Modulation of human gamma-secretase presenilin-1 subunit expressed in CHO cells coexpressing human APP assessed as increase in amyloid beta 38 generation after 24 hrs by ELISA; format: cell-based
[7] = Micelle aggregation by compound at 100 uM by dynamic light scattering assay; format: physicochemical
[8] = Micelle formation by compound at 100 uM by dynamic light scattering assay; format: physicochemical

Row | SMILES | Activity [1] | IC50 (Presenilin-1 [2]) [µM] | Activity (Presenilin-1 [3]) [%] | IC50 (Presenilin-1 [4]; read-out: IC50) [µM] | IC50 (Presenilin-1 [4]; read-out: pIC50 (converted)) [µM] | Activity [5] | EC50 (Presenilin-1 [6]) [µM] | Activity [7] | Activity [8]
1 | Cc1c(C)c2c(c(C)c1OCC(=O)O)CCC(C)(CCCC(C)CCCC(C)CCCC(C)C)O2 (stereo not drawn) | Not Active | 26 | 55 | 12 | 31.6 | Not Active | 4 |  | 
2 | CC(C)=CCC/C(C)=C/CC/C(C)=C/Cn1c2ccc(Cl)cc2c2ccc(C(C)C(=O)O)cc21 (stereo not drawn) | Not Active | 26 | 80 | 4 | 31.6 | Not Active | 2 |  | 
3 | Cc1c(C)c2c(c(C)c1OCC(=O)O)CCC(C)(CCC[C@H](C)CCC[C@H](C)CCCC(C)C)O2 (stereo partly drawn) | Not Active | 24 | 55 | 11 | 31.6 | Not Active | 6 |  | 
4 | CC(C)=CCC/C(C)=C/CC/C(C)=C/COC(=O)C1(C)CCc2c(C)c(OCC(=O)O)c(C)c(C)c2O1 (stereo not drawn) | Not Active | 25 | 35 | 27 | 39.8 | Not Active | 1 |  | 
5 | C/C(=C\COC(=O)C1(C)CCc2c(C)c(OCC(=O)O)c(C)c(C)c2O1)CCC[C@H](C)CCC[C@H](C)CCCC(C)C (stereo partly drawn) | Not Active | 36 | 135 | 24 | 39.8 | Not Active | 13 |  | 
6 | C/C(=C\Cn1c2ccc(Cl)cc2c2ccc(C(C)C(=O)O)cc21)CCC[C@H](C)CCC[C@H](C)CCCC(C)C (stereo partly drawn) | Not Active | > 50 |  | 23 | 39.8 | Not Active | > 50 |  | 
7 | Cc1c(C)c2c(c(C)c1O)CCC(C)(CCCC(C)CCCC(C)CCCC(C)C)O2 (racemic) [alpha-TOCHOPHEROL] |  | > 100 |  | > 100 |  |  | > 100 |  | 
8 | CCCCCCCCOc1c(C)c(C)c2c(c1C)CCC(C)(C(=O)O)O2 (stereo not drawn) | Not Active | > 50 |  | 57 | 25.1 | Not Active | > 50 |  | 
9 | COC(=O)COc1c(C)c(C)c2c(c1C)CCC(C)(CCCC(C)CCCC(C)CCCC(C)C)O2 (stereo not drawn) |  | > 100 |  | > 100 |  |  | > 100 |  | 
10 | C/C(=C\COc1c(C)c(C)c2c(c1C)CCC(C)(C(=O)O)O2)CCC[C@H](C)CCC[C@H](C)CCCC(C)C (stereo partly drawn) | Not Active | 42 | 35 | 26 | 39.8 | Not Active | 10 |  | 
11 | CC(C)=CCC/C(C)=C/CC/C(C)=C/COc1c(C)c(C)c2c(c1C)CCC(C)(C(=O)O)O2 (stereo not drawn) | Not Active | 39 | 35 | 28 | 31.6 | Not Active | 8 |  | 

Further lines, results first:

Row | Activity [1] | IC50 (Presenilin-1 [2]) [µM] | Activity (Presenilin-1 [3]) [%] | IC50 (Presenilin-1 [4]; read-out: IC50) [µM] | IC50 (Presenilin-1 [4]; read-out: pIC50 (converted)) [µM] | Activity [5] | EC50 (Presenilin-1 [6]) [µM] | Activity [7] | Activity [8] | SMILES
12 | Not Active | > 50 | 65 | 28 | 31.6 | Not Active | 10 | Active | Active | CCCCCCCCCCCOc1c(C)c(C)c2c(c1C)CCC(C)(C(=O)O)O2 (stereo not drawn)
13 | Not Active | 34 | 95 | 22 | 39.8 | Not Active | 6 |  |  | CCCCCCCCCCCCCCOC(=O)C1(C)CCc2c(C)c(OCC(=O)O)c(C)c(C)c2O1 (stereo not drawn)
14 | Not Active | 29 | 40 | 14 | 31.6 | Not Active | 9 |  |  | CCCCCCCCCCCCCCOc1c(C)c(C)c2c(c1C)CCC(C)(C(=O)O)O2 (stereo not drawn)
15 | Not Active | 23 | 100 | 12 | 31.6 | Not Active | 5 |  |  | CCCCCCCCCCCOC(=O)C1(C)CCc2c(C)c(OCC(=O)O)c(C)c(C)c2O1 (stereo not drawn)
16 | Not Active | 42 | 60 | 35 |  | Not Active | 11 |  |  | CCCCCCCCOC(=O)C1(C)CCc2c(C)c(OCC(=O)O)c(C)c(C)c2O1 (stereo not drawn)
